Data from publication PMC5448077, “Development of an orally available inhibitor of CLK1 for skipping a mutated dystrophin exon in Duchenne muscular dystrophy” (Scientific Reports, 2017).

Columns and labels:
Assay in all cases: biochemical
[1] = molecular target: TSSK3 (Homo sapiens, UniProt Q96PN8)
Method in brief: (§1)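 Reactions at room temperature in HEPES buffer (20 mM, pH 7.5, 0.01% Triton X-100, 2 mM DTT) lasted 1 or 5 h depending on kinase, with substrate peptide and ATP-metal. Phosphorylation read by electrophoretic mobility shift or IMAP polarization; kinase activity computed as P/(P + S).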

[2] = molecular target: T1, NDR2 (Homo sapiens, UniProt Q9Y2H1)
T1 construct: gene STK38L
Method in brief: as §1

[3] = molecular target: T2, MRCKβ (Homo sapiens, UniProt Q9Y5S2)
T2 construct: gene CDC42BPB
Method in brief: as §1

[4] = molecular target: EPHA6 (Homo sapiens, UniProt Q9UF33)
Method in brief: as §1

[5] = molecular target: T3, CK2α2/β (Homo sapiens, UniProt P19784)
T3 construct: gene CSNK2A2
Method in brief: as §1

[6] = molecular target: TNIK (Homo sapiens, UniProt Q9UKE5)
Method in brief: as §1

[7] = molecular target: T4, PKCε (Homo sapiens, UniProt Q02156)
T4 construct: gene PRKCE
T4 sequence (Q02156 whole entry): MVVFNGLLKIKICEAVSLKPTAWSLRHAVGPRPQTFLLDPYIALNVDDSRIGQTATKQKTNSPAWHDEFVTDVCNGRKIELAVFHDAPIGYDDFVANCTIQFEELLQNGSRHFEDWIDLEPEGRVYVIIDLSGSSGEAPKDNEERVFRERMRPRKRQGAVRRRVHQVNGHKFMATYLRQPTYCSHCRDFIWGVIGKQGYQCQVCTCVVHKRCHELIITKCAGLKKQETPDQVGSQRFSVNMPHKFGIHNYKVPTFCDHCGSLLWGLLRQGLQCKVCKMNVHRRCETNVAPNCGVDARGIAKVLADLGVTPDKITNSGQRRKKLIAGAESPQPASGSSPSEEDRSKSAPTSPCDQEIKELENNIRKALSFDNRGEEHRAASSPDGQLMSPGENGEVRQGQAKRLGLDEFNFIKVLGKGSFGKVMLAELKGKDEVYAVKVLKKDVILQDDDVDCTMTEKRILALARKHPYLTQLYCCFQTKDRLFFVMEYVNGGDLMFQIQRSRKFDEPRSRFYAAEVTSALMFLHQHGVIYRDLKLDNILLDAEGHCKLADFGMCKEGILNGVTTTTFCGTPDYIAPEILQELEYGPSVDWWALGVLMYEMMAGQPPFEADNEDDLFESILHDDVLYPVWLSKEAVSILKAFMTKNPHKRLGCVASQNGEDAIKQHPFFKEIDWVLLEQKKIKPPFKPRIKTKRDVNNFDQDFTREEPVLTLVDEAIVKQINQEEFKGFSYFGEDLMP
Method in brief: as §1

[8] = molecular target: ALK(G1202R) (Homo sapiens, UniProt Q9UM73, G1202R)
ALK(G1202R), sequence (Q9UM73 whole entry G1202R): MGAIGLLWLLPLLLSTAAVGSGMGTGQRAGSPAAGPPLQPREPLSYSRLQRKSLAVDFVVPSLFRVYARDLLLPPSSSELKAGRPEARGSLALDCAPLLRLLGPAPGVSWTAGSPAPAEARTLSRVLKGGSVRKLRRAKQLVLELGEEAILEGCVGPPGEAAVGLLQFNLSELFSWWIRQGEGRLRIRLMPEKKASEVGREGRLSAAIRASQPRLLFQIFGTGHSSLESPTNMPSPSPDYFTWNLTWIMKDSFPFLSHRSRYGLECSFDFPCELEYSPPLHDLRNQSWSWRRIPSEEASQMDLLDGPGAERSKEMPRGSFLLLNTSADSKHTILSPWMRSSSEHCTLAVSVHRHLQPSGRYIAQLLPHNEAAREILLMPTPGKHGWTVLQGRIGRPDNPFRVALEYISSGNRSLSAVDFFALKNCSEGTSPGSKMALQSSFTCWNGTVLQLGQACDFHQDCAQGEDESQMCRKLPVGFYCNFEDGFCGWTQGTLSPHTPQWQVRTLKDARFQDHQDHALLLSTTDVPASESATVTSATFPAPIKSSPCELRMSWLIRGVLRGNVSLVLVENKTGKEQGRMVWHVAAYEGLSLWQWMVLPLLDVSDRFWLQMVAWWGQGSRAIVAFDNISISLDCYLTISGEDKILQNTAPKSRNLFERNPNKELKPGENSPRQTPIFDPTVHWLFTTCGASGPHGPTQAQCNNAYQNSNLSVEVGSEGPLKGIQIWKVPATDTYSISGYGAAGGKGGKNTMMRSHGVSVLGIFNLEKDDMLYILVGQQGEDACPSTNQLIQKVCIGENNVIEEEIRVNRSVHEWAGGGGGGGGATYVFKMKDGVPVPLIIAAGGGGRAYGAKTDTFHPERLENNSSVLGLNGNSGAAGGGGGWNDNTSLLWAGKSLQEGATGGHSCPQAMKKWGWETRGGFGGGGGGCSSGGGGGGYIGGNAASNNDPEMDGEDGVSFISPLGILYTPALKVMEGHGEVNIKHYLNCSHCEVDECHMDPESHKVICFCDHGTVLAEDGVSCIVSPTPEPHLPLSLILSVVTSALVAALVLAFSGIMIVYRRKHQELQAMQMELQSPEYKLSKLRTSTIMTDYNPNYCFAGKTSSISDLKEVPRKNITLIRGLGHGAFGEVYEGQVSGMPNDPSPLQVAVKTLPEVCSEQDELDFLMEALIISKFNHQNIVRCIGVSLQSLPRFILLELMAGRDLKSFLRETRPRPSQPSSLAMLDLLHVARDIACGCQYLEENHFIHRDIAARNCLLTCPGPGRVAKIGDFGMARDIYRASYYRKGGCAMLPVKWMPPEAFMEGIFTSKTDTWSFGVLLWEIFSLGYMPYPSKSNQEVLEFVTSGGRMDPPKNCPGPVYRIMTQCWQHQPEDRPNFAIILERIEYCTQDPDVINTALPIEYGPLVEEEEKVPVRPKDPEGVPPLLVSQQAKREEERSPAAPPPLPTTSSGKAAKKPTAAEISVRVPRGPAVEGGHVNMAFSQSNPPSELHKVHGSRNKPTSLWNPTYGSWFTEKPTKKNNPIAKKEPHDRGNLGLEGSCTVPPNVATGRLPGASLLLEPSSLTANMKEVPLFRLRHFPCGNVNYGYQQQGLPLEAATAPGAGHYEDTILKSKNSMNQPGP
Method in brief: as §1

[9] = molecular target: SRPK2 (Homo sapiens, UniProt P78362)
Method in brief: as §1

[10] = molecular target: CaMK4 (Homo sapiens, UniProt Q16566)
Method in brief: as §1

[11] = molecular target: T5, MST2 (Homo sapiens, UniProt Q13188)
T5 construct: gene STK3
Method in brief: as §1

[12] = molecular target: T6, CK1γ1 (Homo sapiens, UniProt Q9HCP0)
T6 construct: gene CSNK1G1
Method in brief: as §1

[13] = molecular target: IRAK1 (Homo sapiens, UniProt P51617)
Method in brief: as §1

[14] = molecular target: T7, PKCβ1 (Homo sapiens, UniProt P05771)
T7 construct: gene PRKCB; isoform beta 1
Method in brief: as §1

[15] = molecular target: FGFR3(K650M) (Homo sapiens, UniProt P22607, K650M)
Method in brief: as §1

[16] = molecular target: T8, CDC2/CycB1 (Homo sapiens, UniProt P06493)
T8 construct: gene CDK1
Method in brief: as §1

[17] = molecular target: NEK7 (Homo sapiens, UniProt Q8TDX7)
NEK7, sequence (Q8TDX7 whole entry): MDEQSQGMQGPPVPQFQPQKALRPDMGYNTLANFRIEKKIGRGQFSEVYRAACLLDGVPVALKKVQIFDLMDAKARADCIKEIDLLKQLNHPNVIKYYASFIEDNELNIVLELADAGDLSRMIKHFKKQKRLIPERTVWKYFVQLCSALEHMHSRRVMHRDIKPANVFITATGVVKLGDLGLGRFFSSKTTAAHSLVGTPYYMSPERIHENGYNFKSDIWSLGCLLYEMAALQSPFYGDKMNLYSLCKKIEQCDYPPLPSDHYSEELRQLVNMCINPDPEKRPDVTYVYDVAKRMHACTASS
Method in brief: as §1

[18] = molecular target: T9, HER4 (Homo sapiens, UniProt Q15303)
T9 construct: gene ERBB4
Method in brief: as §1

[19] = molecular target: SRC (Homo sapiens, UniProt P12931)
Method in brief: as §1

[20] = molecular target: BRSK1 (Homo sapiens, UniProt Q8TDC3)
Method in brief: as §1

[21] = molecular target: T10, PKCβ2 (Homo sapiens, UniProt P05771)
T10 construct: gene PRKCB; isoform beta2
Method in brief: as §1

[22] = molecular target: Haspin (Homo sapiens, UniProt Q8TF76)
Haspin, sequence (Q8TF76 whole entry): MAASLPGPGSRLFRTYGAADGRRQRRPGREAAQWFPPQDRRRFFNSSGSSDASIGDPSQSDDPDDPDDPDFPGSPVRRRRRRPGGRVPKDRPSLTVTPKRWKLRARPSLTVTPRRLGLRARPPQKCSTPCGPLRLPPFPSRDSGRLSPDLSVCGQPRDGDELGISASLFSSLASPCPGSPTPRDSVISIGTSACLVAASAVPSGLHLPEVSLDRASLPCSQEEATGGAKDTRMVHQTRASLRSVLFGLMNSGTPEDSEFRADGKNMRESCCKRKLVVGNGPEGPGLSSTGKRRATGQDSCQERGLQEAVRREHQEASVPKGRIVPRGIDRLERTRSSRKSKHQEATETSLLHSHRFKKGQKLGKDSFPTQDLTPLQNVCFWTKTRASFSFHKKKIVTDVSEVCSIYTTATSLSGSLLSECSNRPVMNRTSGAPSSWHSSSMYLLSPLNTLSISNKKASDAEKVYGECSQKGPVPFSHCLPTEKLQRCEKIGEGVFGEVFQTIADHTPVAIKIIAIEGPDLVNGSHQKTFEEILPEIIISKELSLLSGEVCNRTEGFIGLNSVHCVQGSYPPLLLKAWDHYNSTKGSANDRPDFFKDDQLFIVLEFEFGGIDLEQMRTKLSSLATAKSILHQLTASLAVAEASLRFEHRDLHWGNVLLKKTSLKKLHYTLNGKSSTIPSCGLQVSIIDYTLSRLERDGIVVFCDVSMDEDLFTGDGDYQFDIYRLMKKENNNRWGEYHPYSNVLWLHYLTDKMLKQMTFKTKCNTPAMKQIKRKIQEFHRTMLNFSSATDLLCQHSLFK
Method in brief: as §1

[23] = molecular target: MAPKAPK2 (Homo sapiens, UniProt P49137)
Method in brief: as §1

[24] = molecular target: T11, AMPKα1/β1/γ1 (Homo sapiens, UniProt Q13131)
T11 construct: gene PRKAA1
T11 sequence (Q13131 whole entry): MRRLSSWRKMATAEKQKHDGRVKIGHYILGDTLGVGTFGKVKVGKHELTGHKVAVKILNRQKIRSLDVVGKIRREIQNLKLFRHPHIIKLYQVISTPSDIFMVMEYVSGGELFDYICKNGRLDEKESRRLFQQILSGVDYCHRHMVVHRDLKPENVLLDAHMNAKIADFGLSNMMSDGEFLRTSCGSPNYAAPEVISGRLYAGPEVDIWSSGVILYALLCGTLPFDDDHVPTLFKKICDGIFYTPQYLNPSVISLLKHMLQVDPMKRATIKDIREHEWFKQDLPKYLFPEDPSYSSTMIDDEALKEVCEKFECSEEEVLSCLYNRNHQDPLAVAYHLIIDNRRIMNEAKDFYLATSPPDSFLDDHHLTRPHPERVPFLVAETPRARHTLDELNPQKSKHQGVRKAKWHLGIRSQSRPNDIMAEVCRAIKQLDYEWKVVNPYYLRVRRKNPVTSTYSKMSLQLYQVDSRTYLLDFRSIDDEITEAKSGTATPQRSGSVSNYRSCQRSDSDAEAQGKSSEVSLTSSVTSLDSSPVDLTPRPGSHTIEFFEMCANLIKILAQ
T11 sequence (P54619 whole entry partner): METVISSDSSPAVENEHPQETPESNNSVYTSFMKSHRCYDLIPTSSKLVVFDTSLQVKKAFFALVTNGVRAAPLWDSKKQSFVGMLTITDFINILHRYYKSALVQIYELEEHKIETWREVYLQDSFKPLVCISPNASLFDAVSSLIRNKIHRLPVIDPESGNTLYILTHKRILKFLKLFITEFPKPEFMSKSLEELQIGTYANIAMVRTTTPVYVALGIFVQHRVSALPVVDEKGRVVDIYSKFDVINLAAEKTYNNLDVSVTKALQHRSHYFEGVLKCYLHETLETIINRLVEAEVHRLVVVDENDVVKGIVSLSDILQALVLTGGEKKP
T11 sequence (Q9Y478 whole entry partner): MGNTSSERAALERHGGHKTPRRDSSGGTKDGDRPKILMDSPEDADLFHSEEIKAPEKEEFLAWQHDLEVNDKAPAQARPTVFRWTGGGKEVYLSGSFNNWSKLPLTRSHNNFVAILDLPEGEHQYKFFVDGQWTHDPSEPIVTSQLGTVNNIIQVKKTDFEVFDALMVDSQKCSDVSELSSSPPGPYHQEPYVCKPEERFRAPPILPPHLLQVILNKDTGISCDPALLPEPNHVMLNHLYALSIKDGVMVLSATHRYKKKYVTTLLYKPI
Method in brief: as §1

[25] = molecular target: T12, p38γ (Homo sapiens, UniProt P53778)
T12 construct: gene MAPK12
Method in brief: as §1

[26] = molecular target: T13, SRM (Homo sapiens, UniProt Q9H3Y6)
T13 construct: gene SRMS
Method in brief: as §1

[27] = molecular target: T14, PYK2 (Homo sapiens, UniProt Q14289)
T14 construct: gene PTK2B
Method in brief: as §1

[28] = molecular target: KIT(T670I) (Homo sapiens, UniProt P10721, T670I)
Method in brief: as §1

[29] = molecular target: T15, MSK1 (Homo sapiens, UniProt O75582)
T15 construct: gene RPS6KA5
Method in brief: as §1

[30] = molecular target: T16, CK1ε (Homo sapiens, UniProt P49674)
T16 construct: gene CSNK1E
T16 sequence (P49674 whole entry): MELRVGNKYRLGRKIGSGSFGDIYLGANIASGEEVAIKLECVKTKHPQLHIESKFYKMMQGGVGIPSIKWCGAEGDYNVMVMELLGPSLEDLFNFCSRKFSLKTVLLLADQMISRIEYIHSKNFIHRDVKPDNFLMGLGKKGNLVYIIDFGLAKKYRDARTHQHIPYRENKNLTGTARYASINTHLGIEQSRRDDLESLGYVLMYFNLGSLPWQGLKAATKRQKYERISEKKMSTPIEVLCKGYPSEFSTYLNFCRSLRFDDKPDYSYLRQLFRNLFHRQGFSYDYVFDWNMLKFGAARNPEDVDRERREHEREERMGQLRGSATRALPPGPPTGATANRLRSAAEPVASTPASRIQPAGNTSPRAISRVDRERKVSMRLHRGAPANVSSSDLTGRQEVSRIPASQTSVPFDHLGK
Method in brief: as §1

`c1cc(-c2ccc3[nH]ncc3c2)ccn1` [TG693, 5-(4-pyridinyl)-1H-indazole] gave an inhibition at 1 µM [1] of 0.8%, an inhibition at 1 µM [2] of 7.5% and an inhibition at 1 µM [3] of -7.3%. It also gave an inhibition at 1 µM [4] of -3.5%, an inhibition at 1 µM [5] of 14.6% and an inhibition at 1 µM [6] of 48.6%. The inhibition at 1 µM [7] was 12.3%, the inhibition at 1 µM [8] was 3.8% and the inhibition at 1 µM [9] was 0.5%. The inhibition at 1 µM [10] was 0.5%, the inhibition at 1 µM [11] was 0.5% and the inhibition at 1 µM [12] was 5%. The inhibition at 1 µM [13] was 4.2%, the inhibition at 1 µM [14] was -11.4% and the inhibition at 1 µM [15] was 7.8%. For the same compound, the inhibition at 1 µM [16] was 10.3%, the inhibition at 1 µM [17] was -9% and the inhibition at 1 µM [18] was 5.8%. It also gave an inhibition at 1 µM [19] of 3.2%, an inhibition at 1 µM [20] of 1.1% and an inhibition at 1 µM [21] of -11.8%. For the same compound, the inhibition at 1 µM [22] was 92.8%, the inhibition at 1 µM [23] was -26% and the inhibition at 1 µM [24] was -6.5%. It also gave an inhibition at 1 µM [25] of 1.4%, an inhibition at 1 µM [26] of 1.5% and an inhibition at 1 µM [27] of 3.3%. For the same compound, the inhibition at 1 µM [28] was -0.7%, the inhibition at 1 µM [29] was 1.2% and the inhibition at 1 µM [30] was 8%.
